# Assay results as given in ChEMBL document CHEMBL1151113, “Umuhengerin, a new antimicrobially active flavonoid from Lantana trifolia” (1988).
# Active and inactive are the calls of the source. The calls are words filed in the database; no cut-off is given here.
# How the values were obtained:
# [1] = tested on: Semliki Forest virus; assay: Antiviral activity against Semliki forest virus in african green monkey Vero cells; type: functional, organism-based
# [2] = tested on: Escherichia coli; assay: Antibacterial activity against Escherichia coli; type: functional
# [3] = tested on: Staphylococcus aureus; assay: Antibacterial activity against Staphylococcus aureus ATCC 25923; type: functional
# [4] = tested on: Streptococcus pyogenes; assay: Antibacterial activity against Streptococcus pyogenes; type: functional
# [5] = tested on: Microsporum canis; assay: Antifungal activity against Microsporum canis; type: functional
# [6] = tested on: Trichophyton mentagrophytes; assay: Antifungal activity against Trichophyton mentagrophytes; type: functional
# [7] = tested on: Trichophyton rubrum; assay: Antifungal activity against Trichophyton rubrum; type: functional
# [8] = tested on: Pseudomonas aeruginosa; assay: Antibacterial activity against Pseudomonas aeruginosa; type: functional
# [9] = tested on: Proteus vulgaris; assay: Antibacterial activity against Proteus vulgaris; type: functional
# [10] = tested on: Neisseria gonorrhoeae; assay: Antibacterial activity against Neisseria gonorrhoeae; type: functional
# [11] = tested on: Klebsiella pneumoniae; assay: Antibacterial activity against Klebsiella pneumoniae; type: functional
# [12] = tested on: Klebsiella aerogenes; assay: Antibacterial activity against Enterobacter aerogenes; type: functional
# [13] = tested on: Shigella flexneri; assay: Antibacterial activity against Shigella flexneri; type: functional
# [14] = tested on: Streptococcus pneumoniae; assay: Antibacterial activity against Streptococcus pneumoniae; type: functional
# [15] = tested on: Human alphaherpesvirus 1; assay: Antiviral activity against Herpes simplex virus 1 in african green monkey Vero cells; type: functional, organism-based
# [16] = tested on: Coxsackievirus; assay: Antiviral activity against Coxsackievirus B2 in african green monkey Vero cells; type: functional, organism-based
# [17] = tested on: Aspergillus flavus; assay: Antifungal activity against Aspergillus flavus; type: functional
# [18] = tested on: Streptococcus viridans; assay: Antibacterial activity against Streptococcus viridans; type: functional
# [19] = tested on: Aspergillus niger; assay: Antifungal activity against Aspergillus niger; type: functional
# [20] = tested on: Salmonella typhimurium; assay: Antibacterial activity against Salmonella Typhimurium; type: functional, Salmonella enterica subsp. enterica serovar Typhimurium; conditions: Salmonella enterica
# [21] = tested on: Mycolicibacterium fortuitum; assay: Antibacterial activity against Mycobacterium fortuitum; type: functional
# [22] = tested on: Candida albicans; assay: Antifungal activity against Candida albicans; type: functional
# [23] = tested on: Candida tropicalis; assay: Antifungal activity against Candida tropicalis; type: functional
# [24] = tested on: Micrococcus; assay: Antibacterial activity against Micrococcus sp.; type: functional
# [25] = tested on: Serratia marcescens; assay: Antibacterial activity against Serratia marcescens; type: functional
# [26] = tested on: Aspergillus fumigatus; assay: Antifungal activity against Aspergillus fumigatus; type: functional
# [27] = tested on: Poliovirus 1; assay: Antiviral activity against Human poliovirus 1 1A/S2 in african green monkey Vero cells; type: functional, organism-based
structure (smiles),measurement,setting,value
COc1cc(-c2cc(=O)c3c(O)c(OC)c(OC)cc3o2)cc(OC)c1OC [GRADENIN A],Activity,[1],inactive
same,MIC,[2],> 200 µg/mL
same,MIC,[3],20 µg/mL
same,MIC,[4],> 200 µg/mL
same,MIC,[5],50 µg/mL
same,MIC,[6],50 µg/mL
same,MIC,[7],> 200 µg/mL
same,MIC,[8],> 200 µg/mL
same,MIC,[9],> 200 µg/mL
same,MIC,[10],> 200 µg/mL
same,MIC,[11],> 200 µg/mL
same,MIC,[12],> 200 µg/mL
same,MIC,[13],> 200 µg/mL
same,MIC,[14],> 200 µg/mL
same,Activity,[15],inactive
same,Activity,[16],inactive
same,MIC,[17],> 200 µg/mL
same,MIC,[18],> 200 µg/mL
same,MIC,[19],200 µg/mL
same,MIC,[20],5 µg/mL
same,MIC,[21],> 200 µg/mL
same,MIC,[22],> 200 µg/mL
same,MIC,[23],20 µg/mL
same,MIC,[24],> 200 µg/mL
same,MIC,[25],> 200 µg/mL
same,MIC,[26],200 µg/mL
same,Activity,[27],inactive
